Results: ChEMBL document CHEMBL1144464, “Mutations in fusA associated with posttherapy fusidic acid resistance in Clostridium difficile” (2007)
In brackets after ≈: the same amount, converted by molar mass.

Columns and labels:
Format in all cases: functional
Clostridioides difficile [1] = experiment: Antibacterial activity against fusidic acid resistant Clostridium difficile 57:3 isolate with fusA S116L and A374V mutation after 35 to 40 days
Clostridioides difficile [2] = experiment: Antibacterial activity against fusidic acid resistant Clostridium difficile 26:2 isolate with fusA D432N mutation after 8 to 13 days
Clostridioides difficile [3] = experiment: Antibacterial activity against fusidic acid resistant Clostridium difficile 49:2 isolate after 8 to 13 days
Clostridioides difficile [4] = experiment: Antibacterial activity against fusidic acid resistant Clostridium difficile 26:1 isolate after 1 day; conditions: 24 h
Clostridioides difficile [5] = experiment: Antibacterial activity against fusidic acid resistant Clostridium difficile 26:3 isolate with fusA M16I and H455N mutation after 35 to 40 days
Clostridioides difficile [6] = experiment: Antibacterial activity against fusidic acid resistant Clostridium difficile 49:1 isolate after 1 day; conditions: 24 h
Clostridioides difficile [7] = experiment: Antibacterial activity against fusidic acid resistant Clostridium difficile 49:3 isolate with fusA S116L and A374V mutation after 35 to 40 days
Clostridioides difficile [8] = experiment: Antibacterial activity against fusidic acid resistant Clostridium difficile 51:1 isolate after 1 day; conditions: 24 h
Clostridioides difficile [9] = experiment: Antibacterial activity against fusidic acid resistant Clostridium difficile 51:2 isolate with fusA S449P mutation after 8 to 13 days
Clostridioides difficile [10] = experiment: Antibacterial activity against fusidic acid resistant Clostridium difficile 57:1 isolate after 1 day; conditions: 24 h
Clostridioides difficile [11] = experiment: Antibacterial activity against fusidic acid resistant Clostridium difficile 62:1 isolate after 1 day; conditions: 24 h
Clostridioides difficile [12] = experiment: Antibacterial activity against fusidic acid resistant Clostridium difficile 62:2 isolate after 8 to 13 days
Clostridioides difficile [13] = experiment: Antibacterial activity against fusidic acid resistant Clostridium difficile 62:3 isolate with fusA A375 deletion after 35 to 40 days
Clostridioides difficile [14] = experiment: Antibacterial activity against fusidic acid resistant Clostridium difficile 63:1 isolate after 1 day; conditions: 24 h
Clostridioides difficile [15] = experiment: Antibacterial activity against fusidic acid resistant Clostridium difficile 63:2 isolate with fusA T434I after 8 to 13 days
Clostridioides difficile [16] = experiment: Antibacterial activity against fusidic acid resistant Clostridium difficile 72:1 isolate after 1 day; conditions: 24 h
Clostridioides difficile [17] = experiment: Antibacterial activity against fusidic acid resistant Clostridium difficile 72:2 isolate with fusA S116L and A374V mutation after 8 to 13 days
Clostridioides difficile [18] = experiment: Antibacterial activity against fusidic acid resistant Clostridium difficile 73:1 isolate after 1 day; conditions: 24 h
Clostridioides difficile [19] = experiment: Antibacterial activity against fusidic acid resistant Clostridium difficile 73:2 isolate with fusA I459R mutation after 8 to 13 days
Clostridioides difficile [20] = experiment: Antibacterial activity against fusidic acid resistant Clostridium difficile 100:1 isolate after 1 day; conditions: 24 h
Clostridioides difficile [21] = experiment: Antibacterial activity against fusidic acid resistant Clostridium difficile 100:2 isolate with fusA V119A mutation after 8 to 13 days
Clostridioides difficile [22] = experiment: Antibacterial activity against fusidic acid resistant Clostridium difficile 107:1 isolate after 1 day; conditions: 24 h
Clostridioides difficile [23] = experiment: Antibacterial activity against fusidic acid resistant Clostridium difficile 107:3 isolate with fusA A459R mutation after 35 to 40 days
Clostridioides difficile [24] = experiment: Antibacterial activity against fusidic acid resistant Clostridium difficile 248:1 isolate after 1 day; conditions: 24 h
Clostridioides difficile [25] = experiment: Antibacterial activity against fusidic acid resistant Clostridium difficile 248:3 isolate with fusA H455R mutation after 35 to 40 days
Clostridioides difficile [26] = experiment: Antibacterial activity against fusidic acid resistant Clostridium difficile 58:1 isolate with fusA H455Q mutation after 1 day; conditions: 24 h
Clostridioides difficile [27] = experiment: Antibacterial activity against fusidic acid resistant Clostridium difficile 58:2 isolate with fusA H455Q mutation after 8 to 13 days

`CC(=O)O[C@H]1C[C@@]2(C)[C@@H](C[C@@H](O)[C@H]3[C@@]4(C)CC[C@@H](O)[C@@H](C)[C@@H]4CC[C@@]32C)/C1=C(\CCC=C(C)C)C(=O)O` [FUSIDIC ACID] gave an MIC (Clostridioides difficile [1]) greater than 256 µg/mL, an MIC (Clostridioides difficile [2]) greater than 256 µg/mL and an MIC (Clostridioides difficile [3]) of 0.25 µg/mL (≈ 0.484 µM). It also gave an MIC (Clostridioides difficile [4]) of 0.38 µg/mL (≈ 0.735 µM), an MIC (Clostridioides difficile [5]) greater than 256 µg/mL and an MIC (Clostridioides difficile [6]) of 0.25 µg/mL (≈ 0.484 µM). The MIC (Clostridioides difficile [7]) was greater than 256 µg/mL, the MIC (Clostridioides difficile [8]) was 0.25 µg/mL (≈ 0.484 µM) and the MIC (Clostridioides difficile [9]) was greater than 256 µg/mL. It also gave an MIC (Clostridioides difficile [10]) of 0.38 µg/mL (≈ 0.735 µM), an MIC (Clostridioides difficile [11]) of 0.25 µg/mL (≈ 0.484 µM) and an MIC (Clostridioides difficile [12]) of 0.25 µg/mL (≈ 0.484 µM). For the same compound, the MIC (Clostridioides difficile [13]) was 4 µg/mL (≈ 7.74 µM), the MIC (Clostridioides difficile [14]) was 0.25 µg/mL (≈ 0.484 µM) and the MIC (Clostridioides difficile [15]) was 64 µg/mL (≈ 124 µM). It also gave an MIC (Clostridioides difficile [16]) of 0.25 µg/mL (≈ 0.484 µM), an MIC (Clostridioides difficile [17]) greater than 256 µg/mL and an MIC (Clostridioides difficile [18]) of 0.5 µg/mL (≈ 0.968 µM). For the same compound, the MIC (Clostridioides difficile [19]) was greater than 256 µg/mL, the MIC (Clostridioides difficile [20]) was 0.38 µg/mL (≈ 0.735 µM) and the MIC (Clostridioides difficile [21]) was greater than 256 µg/mL. The MIC (Clostridioides difficile [22]) was 0.19 µg/mL (≈ 0.368 µM), the MIC (Clostridioides difficile [23]) was greater than 256 µg/mL and the MIC (Clostridioides difficile [24]) was 0.125 µg/mL (≈ 0.242 µM). For the same compound, the MIC (Clostridioides difficile [25]) was greater than 256 µg/mL, the MIC (Clostridioides difficile [26]) was greater than 256 µg/mL and the MIC (Clostridioides difficile [27]) was greater than 256 µg/mL.
